Measurements from patent publication US9464064B2, “HCV helicase inhibitors and methods of use thereof” (University of Kansas, priority 2011, dated 2016).

Target: T1, HCV NS3 helicase NS3h_1b(con1) (Hepatitis C virus genotype 1b, UniProt Q9WMX2)
T1 construct: truncated C-terminally His-tagged NS3 proteins lacking the N-terminal protease, called NS3h; His-tag (C); made in house
Test: MBHA screen of NCI mechanistic set library at 20 μM (percent inhibition, compound interference)
Format: biochemical
Details: compounds at 20 μM; for Inh. (%) (Inhibition): calculated from Equation 1
Description: All molecular beacon-based helicase assays (MBHAs) were performed according to known methods (Belon & Frick (2008) supra; Belon & Frick (2009) supra). […] In each flat, black 384-well plate, 56 compounds were tested, in triplicate, along with three negative controls (DMSO only), three positive controls (500 nM dT20), and two wells with no enzyme. Fluorescence was read before ATP (F0) addition and 30 minutes after ATP was added to 1 mM (F30) using a Tecan Infinite M200 fluorescence microplate reader with excitation and emission wavelengths set to 643 and 670 nm, respectively. Percent inhibition was calculated with equation 1, and compound interference in the MBHA was calculated with equation 2.
In Equations 1 and 2, Fc0 is the fluorescence of the reactions containing the test compound before adding ATP, Fc30 is the fluorescence of the test compound reaction 30 minutes after adding ATP. F(−)0 is the average of three DMSO-only negative control reactions before adding ATP and F(−)30 is the average of three DMSO-only reactions 30 minutes after adding ATP.
To identify HCV helicase inhibitors, the MBHA was first used to screen the National Cancer Institute Developmental Therapeutics Program's mechanistic set library. In total, 827 compounds (at 20 μM) were screened using a MBHA with a DNA substrate (Table 1). Compounds were ranked by their ability to inhibit HCV helicase-catalyzed DNA unwinding as calculated from Equation 1.
Compound interference in the MBHA was evaluated by comparing the fluorescence of reactions containing each compound to the fluorescence of DMSO-only negative controls before ATP was added.

[1] = MBHA with DNA substrate, assay interference calculated with Equation 2
[2] = assay interference calculated with Equation 2 (fluorescence vs DMSO-only controls before ATP)

T1 sequence (Q9WMX2 1192-1657): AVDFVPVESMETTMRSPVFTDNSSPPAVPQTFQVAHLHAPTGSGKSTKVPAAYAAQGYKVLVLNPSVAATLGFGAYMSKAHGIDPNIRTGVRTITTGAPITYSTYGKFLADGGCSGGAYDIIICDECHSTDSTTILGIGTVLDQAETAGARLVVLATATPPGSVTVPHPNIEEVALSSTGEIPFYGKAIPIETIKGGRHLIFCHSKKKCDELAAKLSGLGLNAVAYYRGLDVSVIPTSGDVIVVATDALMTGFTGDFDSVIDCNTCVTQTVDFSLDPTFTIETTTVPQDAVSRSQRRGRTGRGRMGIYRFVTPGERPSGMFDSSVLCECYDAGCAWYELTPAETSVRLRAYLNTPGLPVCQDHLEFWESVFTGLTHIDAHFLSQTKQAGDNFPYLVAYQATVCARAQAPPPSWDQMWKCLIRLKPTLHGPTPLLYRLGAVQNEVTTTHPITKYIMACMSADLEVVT

## Nc1ncnc2c1ncn2[C@@H]1O[C@H](CO)C[C@H]1O [Compound 63984]
[1]
  Int.* (Ratio) (Interference): 1.11 Ratio
MBHA with DNA substrate
  Inh. (%) (Inhibition): −0.8%

## CC(C)CCCCCCCCCCCCC(=O)NCC(=O)N[C@@H]1[C@@H](O)[C@H](O)[C@@H](Nc2ncnc3nc[nH]c23)O[C@H]1[C@@H](O)CO [Compound 65104]
MBHA with a DNA substrate
  Inh. (%) (Inhibition): −22.3%
[2]
  Int.* (Ratio) (Interference): 1.01 Ratio

## NC(=O)c1cn(C2OC(CO)C(O)C2O)c2ncnc(N)c12 (stereo not shown) [Compound 65346]
[1]
  Int.* (Ratio) (Interference): 0.92 Ratio
MBHA with DNA substrate
  Inh. (%) (Inhibition): 0.0%

## CC1OC1C(=O)C1(O)C(C)C(O)C23OC2(C(O)c2c(O)cccc2C3=O)C1O (stereo not shown) [Compound 65380]
MBHA with a DNA substrate
  Inh. (%) (Inhibition): 11.3%
[2]
  Int.* (Ratio) (Interference): 1.03 Ratio

## NC(=O)C#CC(N)=O [Compound 65381]
[1]
  Int.* (Ratio) (Interference): 0.96 Ratio
MBHA with DNA substrate
  Inh. (%) (Inhibition): 14.1%

## OC[C@H]1O[C@@H](n2cnc3cncnc32)[C@H](O)[C@@H]1O [Compound 65423]
[1]
  Int.* (Ratio) (Interference): 1.12 Ratio
MBHA with DNA substrate
  Inh. (%) (Inhibition): 2.0%

## O=C(Nc1ccc2c(c1)oc(=O)c1ccccc12)C(Cl)Cl [Compound 65937]
[1]
  Int.* (Ratio) (Interference): 1.01 Ratio
MBHA with DNA substrate
  Inh. (%) (Inhibition): −9.8%

## CCCCC(/C=N/N=C(N)N)CC.Cc1cc(O)c(C(C)C)cc1S(=O)(=O)O [Compound 66300]
[1]
  Int.* (Ratio) (Interference): 1.21 Ratio
MBHA with DNA substrate
  Inh. (%) (Inhibition): 2.2%

## CCCc1c(Cl)nc(Cl)nc1Cl [Compound 66914]
[1]
  Int.* (Ratio) (Interference): 0.91 Ratio
MBHA with DNA substrate
  Inh. (%) (Inhibition): −0.8%

## CC[C@]1(O)C[C@H]2CN(CCc3c([nH]c4ccccc34)[C@@](C(=O)OC)(c3cc4c(cc3OC)N(C=O)[C@H]3[C@@](O)(C(=O)OC)[C@H](OC(C)=O)[C@]5(CC)C=CCN6CC[C@]43[C@@H]65)C2)C1 [Compound 67574]
[1]
  Int.* (Ratio) (Interference): 0.96 Ratio
MBHA with DNA substrate
  Inh. (%) (Inhibition): −16.1%

## COc1cc(-c2cc(=O)c3c(OC)c(OC)c(OC)c(OC)c3o2)cc(OC)c1OC [Compound 67580]
MBHA with a DNA substrate
  Inh. (%) (Inhibition): −27.4%
[2]
  Int.* (Ratio) (Interference): 1.12 Ratio

## O=C(O)c1ccccc1-c1ccccc1C(=O)Nc1ccc2c(c1)Cc1ccccc1-2 [Compound 67690]
[1]
  Int.* (Ratio) (Interference): 1.16 Ratio
MBHA with DNA substrate
  Inh. (%) (Inhibition): −9.5%

## COc1cc(C[C@H]2c3cc(OC)c(OC)cc3CCN2C)c(Oc2cc3c(cc2OC)-c2c(OC)c(OC)cc4c2[C@H](C3)N(C)CC4)cc1OC [Compound 68075]
[1]
  Int.* (Ratio) (Interference): 1.02 Ratio
MBHA with DNA substrate
  Inh. (%) (Inhibition): 23.1%

## [O-][n+]1ccccc1[S-].[O-][n+]1ccccc1[S-].[Zn+2] [Compound 68093]
[1]
  Int.* (Ratio) (Interference): 0.90 Ratio
MBHA with DNA substrate
  Inh. (%) (Inhibition): 19.5%

## COc1ccc2[nH]c3c(C)c4ccncc4c(C)c3c2c1 [Compound 69187]
[1]
  Int.* (Ratio) (Interference): 0.22 Ratio
MBHA with DNA substrate
  Inh. (%) (Inhibition): 99.2%

## Cl.Cl.Cl.Cl.NCCCNCCCCNCCCN [Compound 69852]
[1]
  Int.* (Ratio) (Interference): 1.06 Ratio
MBHA with DNA substrate
  Inh. (%) (Inhibition): −8.6%

## Nc1ncnc2c1ncn2C1OC(CO)C(O)C1O (stereo not shown) [Compound 70422]
[1]
  Int.* (Ratio) (Interference): 0.85 Ratio
MBHA with DNA substrate, 20 µM
  Inh. (%) (Inhibition): 33.9%

## COC(=O)C1c2cc3c(c(O)c2C(OC2OC(C)C(OC)C(C)(OC)C2OC)CC1(C)O)C(=O)c1c(O)cc2c(c1C3=O)OC1OC2(C)C(O)C(N(C)C)C1O (stereo not shown) [Compound 70845]
[1]
  Int.* (Ratio) (Interference): 0.59 Ratio
MBHA with DNA substrate
  Inh. (%) (Inhibition): 84.4%

## Cc1cc2c(c3oc(C4(C)OC4C4OC4C)cc(=O)c13)C(=O)c1c(O)c(C3CC(C)(N(C)C)C(O)C(C)O3)cc(C3CC(N(C)C)C(O)C(C)O3)c1C2=O (stereo not shown) [Compound 70929]
[1]
  Int.* (Ratio) (Interference): 0.20 Ratio
MBHA with DNA substrate
  Inh. (%) (Inhibition): 32.1%

## COc1ccc(OC)c(-c2cc(=O)c3c(OC)c(OC)c(OC)c(OC)c3o2)c1 [Compound 71300]
[1]
  Int.* (Ratio) (Interference): 1.12 Ratio
MBHA with DNA substrate
  Inh. (%) (Inhibition): 2.2%

## Nc1nc(N)c(-c2cccc(C(F)(F)F)c2)c(Cc2cccc(C(F)(F)F)c2)n1 [Compound 71669]
[1]
  Int.* (Ratio) (Interference): 1.06 Ratio
MBHA with DNA substrate
  Inh. (%) (Inhibition): 12.4%

## Nc1nc(=S)c2ncn([C@@H]3C[C@H](O)[C@@H](CO)O3)c2[nH]1 [Compound 71851]
MBHA with a DNA substrate
  Inh. (%) (Inhibition): 10.2%
[2]
  Int.* (Ratio) (Interference): 0.94 Ratio

## Nc1ncnc2c1nnn2[C@@H]1O[C@H](CO)[C@@H](O)[C@H]1O [Compound 72961]
MBHA with a DNA substrate
  Inh. (%) (Inhibition): 8.5%
[2]
  Int.* (Ratio) (Interference): 0.98 Ratio

## CC(=O)C1=C(O)C2(O)C(=O)c3c(c(C)c4ccc(C)c(O)c4c3O)CC2C(N)C1=O.CCCCCCCCCCCCOS(=O)(=O)O (stereo not shown) [Compound 73495]
MBHA with a DNA substrate
  Inh. (%) (Inhibition): −5.1%
[2]
  Int.* (Ratio) (Interference): 1.01 Ratio

## Cl.NC(N)=N/N=C(\c1ccc(Cl)cc1)C1CC1 [Compound 74420]
MBHA with a DNA substrate
  Inh. (%) (Inhibition): −6.1%
[2]
  Int.* (Ratio) (Interference): 1.10 Ratio

## O=C(Nc1ccc(Sc2ccc(N=Nc3c(O)c(S(=O)(=O)O)cc4cc(S(=O)(=O)O)ccc34)cc2)cc1)c1ccc(N=Nc2c(O)ccc3c(S(=O)(=O)O)cc(S(=O)(=O)O)cc23)cc1 [Compound 76027]
MBHA with a DNA substrate
  Inh. (%) (Inhibition): −5.5%
[2]
  Int.* (Ratio) (Interference): 0.85 Ratio

## CC1=Nc2ccccc2/C1=C\c1c(C)[nH]c2ccccc12 [Compound 76747]
[1]
  Int.* (Ratio) (Interference): 1.14 Ratio
MBHA with DNA substrate
  Inh. (%) (Inhibition): −1.2%

## C[C@]12C=CC(=O)C=C1[C@@H](F)C[C@H]1[C@@H]3CC[C@](O)(C(=O)CO)[C@@]3(C)C[C@H](O)[C@@]12F [Compound 77021]
MBHA with a DNA substrate
  Inh. (%) (Inhibition): 9.8%
[2]
  Int.* (Ratio) (Interference): 1.00 Ratio

## CCCCOc1ccc(NC(N)=Nc2ccc(Cl)cc2)cc1 [Compound 78365]
[1]
  Int.* (Ratio) (Interference): 0.98 Ratio
MBHA with DNA substrate
  Inh. (%) (Inhibition): 4.7%

## Cc1ccc([N+](=O)[O-])cc1NC(=O)c1cccc([N+](=O)[O-])c1O [Compound 79451]
[1]
  Int.* (Ratio) (Interference): 0.98 Ratio
MBHA with DNA substrate
  Inh. (%) (Inhibition): −11.9%

## Cc1ccc(NC(=O)c2cccc([N+](=O)[O-])c2O)c(C)c1 [Compound 79456]
[1]
  Int.* (Ratio) (Interference): 0.97 Ratio
MBHA with DNA substrate
  Inh. (%) (Inhibition): −14.5%

## Cc1cc(N(CCCl)CCCl)ccc1/C=N/NC(=O)Cc1cc(=O)oc2cc(O)ccc12 [Compound 79688]
MBHA with a DNA substrate
  Inh. (%) (Inhibition): 7.5%
[2]
  Int.* (Ratio) (Interference): 0.97 Ratio

## CN(C)c1ccc(/C=C2/C=Cc3ccccc32)cc1 [Compound 80087]
MBHA with a DNA substrate
  Inh. (%) (Inhibition): −7.0%
[2]
  Int.* (Ratio) (Interference): 1.17 Ratio

## O=C(CC(=O)C(F)(F)F)c1csc2ccccc12 [Compound 80396]
[1]
  Int.* (Ratio) (Interference): 1.12 Ratio
MBHA with DNA substrate
  Inh. (%) (Inhibition): −10.6%

## COc1cc(OC)c(OC)cc1/C=C/c1ccnc2ccccc12 [Compound 80756]
[1]
  Int.* (Ratio) (Interference): 0.97 Ratio
MBHA with DNA substrate
  Inh. (%) (Inhibition): 1.2%

## Cc1ccc(NC(=O)c2cccc([N+](=O)[O-])c2O)c([N+](=O)[O-])c1 [Compound 82025]
MBHA with a DNA substrate
  Inh. (%) (Inhibition): 10.4%
[2]
  Int.* (Ratio) (Interference): 0.94 Ratio

## CCOC(C)C(C=NNC(N)=S)=NNC(N)=S (stereo not shown) [Compound 82116]
MBHA with a DNA substrate
  Inh. (%) (Inhibition): −6.7%
[2]
  Int.* (Ratio) (Interference): 1.10 Ratio

## N[C@@H](CSC(c1ccccc1)(c1ccccc1)c1ccccc1)C(=O)O [Compound 83265]
MBHA with a DNA substrate
  Inh. (%) (Inhibition): −22.5%
[2]
  Int.* (Ratio) (Interference): 0.98 Ratio

## BrCCC[P+](c1ccccc1)(c1ccccc1)c1ccccc1.[Br-] [Compound 84074]
MBHA with a DNA substrate
  Inh. (%) (Inhibition): −31.4%
[2]
  Int.* (Ratio) (Interference): 1.11 Ratio

## C=C1C(=O)O[C@@H]2C[C@@H](C)[C@@H]3C=CC(=O)[C@@]3(C)[C@@H](O)[C@H]12 [Compound 85236]
[1]
  Int.* (Ratio) (Interference): 1.20 Ratio
MBHA with DNA substrate
  Inh. (%) (Inhibition): 0.4%

## O=[N+]([O-])c1cccc2c(N=Nc3ccc4ccccc4c3O)c(O)cc(S(=O)(=O)[O-])c12.[Na+] [Compound 85561]
[1]
  Int.* (Ratio) (Interference): 0.90 Ratio
MBHA with DNA substrate
  Inh. (%) (Inhibition): 68.8%
